What was measured:
[1] = test system: PI3K neuroprotective pathway (P-Akt, P-GSK-3β), Tau, Aβ1-42; conditions: cited from earlier work
[2] = test system: amyloid toxicity (Aβ25-35); conditions: cited from earlier work
[3] = storage stability of crystalline forms, checked by PXRD; format: physicochemical; conditions: 40° C., 75% relative humidity, uncapped vessels, 1 week; forms from SCF in ethanol or dichloromethane
Source text: The present disclosure also provides a metabolite of tetrahydro-N,N-dimethyl-2,2-diphenyl-3-furanmethanamine hydrochloride, ANAVEX19-144. […] See for example J. of Psychopharmacol. 25(8), 1101-1117 (2011). Crystalline forms of ANAVEX19-144 were produced by placing the ANAVEX19-144 starting material in a solvent of ethanol or dichloromethane and processed by the supercritical fluid technique. The crystalline form of ANAVEX19-144 produced by the supercritical fluid technique under process parameters of 40 mg/mL ethanol solution, 200 bars of pressure, temperature of 80° C., supercritical CO2 solution with a flow rate of 20 g/min and a TS flow of 0.4 mL/min, was characterized by PXRD, FTIR, DSC, and SEM, as shown in FIGS. 12-15. […] The crystalline form of ANAVEX19-144 produced using the dichloromethane supercritical fluid technique produced a powder with better flow characteristics and improved flow properties for downstream processing. The two crystalline forms of ANAVEX19-144, produced according to the supercritical fluid technique in ethanol or dichloromethane were stored at 40° C. at 75% relative humidity in uncapped vessels for 1 week and then characterized by PXRD to determine stability of the two forms.

CN(C)CC1CCOC1(c1ccccc1)c1ccccc1.Cl (stereo not drawn) [ANAVEX2-73, tetrahydro-N,N-dimethyl-2,2-diphenyl-3-furanmethanamine hydrochloride]
Aβ25-35-induced P-Akt decrease and P-GSK-3β increase ([1]; Aβ25-35-induced): blocked
Aβ25-35-induced endogenous Aβ1-42 seeding ([1]; Aβ25-35-induced): decrease
hyperphosphorylation of Tau on physiological epitopes (AT-8 clone) and pathological epitopes (AT-100 clone) ([1]; in the dose-range tested): attenuated
oxidative stress, caspases induction, cellular loss and learning and memory deficits ([2]; mice one week after i.c.v. injection of oligomeric Aβ25-35): attenuating
neuroprotective potential against amyloid toxicity ([2]; mice): shows neuroprotective potential against amyloid toxicity

CNCC1CCOC1(c1ccccc1)c1ccccc1.Cl (stereo not drawn) [ANAVEX19-144]
stability of the two crystalline forms (PXRD after storage) [3]: stable under the conditions tested
